Measurements as given in paper PMC9564936 (Proceedings of the National Academy of Sciences of the …, 2022).

What was measured:
EF-P (A1S_2419) [1] = target: T1, EF-P (A1S_2419) (Acinetobacter baumannii, UniProt A3M7E3); test: differential scanning fluorimetry; assay type: binding; conditions: 500 µM c-di-GMP
T1 sequence (A3M7E3 1-189): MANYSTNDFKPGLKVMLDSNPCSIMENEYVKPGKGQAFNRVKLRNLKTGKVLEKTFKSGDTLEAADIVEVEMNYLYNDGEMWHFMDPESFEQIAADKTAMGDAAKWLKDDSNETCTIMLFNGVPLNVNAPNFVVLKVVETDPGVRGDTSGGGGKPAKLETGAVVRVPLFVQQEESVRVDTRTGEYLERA

EF-P (A1S_2419) [2] = target: T1, EF-P (A1S_2419); test: isothermal titration calorimetry; assay type: binding

Nc1nc2c(ncn2[C@@H]2O[C@@H]3COP(=O)(O)O[C@H]4[C@@H](O)[C@H](n5cnc6c(=O)[nH]c(N)nc65)O[C@@H]4COP(=O)(O)O[C@H]3[C@H]2O)c(=O)[nH]1 [c-di-GMP, bis-(3′-5′)-cyclic guanosine monophosphate]
thermal shift (EF-P (A1S_2419) [1]): The DSF assay showed a marked shift in the melting curve of EF-P | Kd (EF-P of A. albensis): 10.7 µM | Kd (EF-P (A1S_2419) [2]): 5.9 µM
